Measurements reported in US20090238852A1, “METHODS FOR CONTROLLING INTRACELLULAR CALCIUM LEVELS ASSOCIATED WITH AN ISCHEMIC EVENT” (University of Utah Research Foundation, priority 2008, published 2009).

Experiments:
[1] = system: rabbit ventricular myocytes; assay: Intracellular calcium [Ca^++]i in ventricular myocytes during paced metabolic ischemia (PMI), Fluo-3 flow cytometry; format: cell-based; details: n = 7
Source text: Consequently, it prevents intracellular sodium overload and subsequent reverse mode operation of the sodium-calcium exchanger. The effect of 2-O, 3-O desulfated heparin on accumulation of intracellular Ca^++ during ischemia was studied in an adult rabbit ventricular myocyte model previously reported (Boston D R, et al. J Pharmacol Exp Ther 285:716-723, 1998; Li F, et al. J Mol Cell Cardiol 33:2145-2155, 2001). Isolated cardiomyocytes have been validated as reliable models of ischemia (Diaz, R J, Wilson G J. Cardiovasc Res 70:286-296, 2006).
To produce the model, hearts are removed from albino rabbits (2-3 kg) anesthetized with sodium pentobarbital (65 mg/kg IV). The heart was immediately attached to an aorta cannula. Continuous perfusion of the coronary arteries at 37° C. by a pump (Masterflex, Cole-Parmer Instrument Co., Chicago, Ill.) was initiated at a perfusion pressure of 60 mm Hg. The heart was first perfused with nominally Ca^++-free modified Krebs-Ringer bicarbonate buffered solution (MKRBB, pH 7.40, containing in mmol/L: NaCl 126, KCl 4.4, […], MgCl2 1.0, HEPES 24, probenecid 0.5 and glucose 5) for 10 min, immediately followed by 15-25 min of recirculating perfusion with the same solutions containing 0.3 mg/ml collagenase (Type 2, Worthington Biochemical, Freehold, N.J.), 0.4 mg/mL hyaluronidase (Type-S, Sigma-Aldrich, St. Louis, Mo.) and 50 μmol/L CaCl2. The heart was then detached from the cannula, and the left ventricle was minced and transferred to a 50 mL conical tube with the same solution containing 0.24 mg/mL collagenase, 0.02 mg/mL trypsin and 50 μmol/L Ca^++ for a second digestion. The minced tissue was continuously agitated by gassing the solution with 5% CO2 and 95% O2 to help release isolated myocytes. The resulting supernatant was transferred to another conical tube with the same volume of the same solution containing 0.03 mg/mL of trypsin inhibitor (Sigma-Aldrich). The cell suspension was centrifuged at 5×g for 5 minutes. The supernatant was discarded and cells were resuspended in solution with a higher Ca^++ concentration (200 μmol/L) and incubated in a CO2 incubator (5% CO2, 28° C.) to settle down cells by gravity for 10 min. The same procedure was repeated twice to bring up the Ca^++ concentration slowly (500, then 1000 μmol/L). Calcium step-up solutions were made from MKRBB with 2% albumin, 50 μmol/L CaCl2 mixed with the appropriate amount of minimum essential medium (MEM, Gibco Laboratories, Grand Island, N.Y.). At the end of isolation, cells were filtered with a […] to avoid cell clumping during flow cytometry studies. The yield of rod-shaped viable myocytes averaged 50%. Cells were used for experiments within 4 hours after dissociation.
In these studies, intracellular calcium concentration [Ca^++]i was measured by flow cytometry. Measurement of isolated mouse and rabbit ventricular myocyte [Ca^2+]i and [Na^+]i by flow cytometry has been described (Zhang et al., J. Cardiovasc. Pharmacol. 51: 443-449 (2008); Li et al., J. Mol. Cell. Cardiol. 33: 2145-2155 (2001)). [Ca^++]i was measured with the Ca^++ sensitive fluorescent probe, Fluo 3-AM (Molecular Probes, Eugene, Oreg.), using a FACScan (Becton-Dickinson, MA). The cells were exposed to 4 μmol/L Fluo-3 AM for 30 min at 37° C. The cells were then separated into aliquots. After 40 min of wash, the cells were exposed to paced metabolic ischemia (MI) for 45 min at 37° C. Metabolic ischemia was accomplished by incubating cells in a glucose-free MKRBB solution (pH 7.40) containing 2 mmol/L sodium cyanide (NaCN) to impair mitochondrial and glycolytic generation of ATP. To reproduce the situation in the beating ischemic heart, during the period of metabolic ischemia, myocytes were placed in a 5-well chamber with equal volumes of myocyte suspensions from the same heart dissociation placed in each well. The chamber was water bathed to maintain temperature at 37° C. and bubbled with 5% CO2 in air to keep myocytes in suspension. […]

NCE = details: cited from earlier work
[2] = system: rabbit ventricular myocytes; assay: [Ca^++]i during paced aerobic metabolism (PH) with the Na^+ channel opener ATX; format: cell-based; details: PH + ATX 20 nmol/L; n = 7; PH alone 406.8 ± 15.9
Protocol: (§1) In these studies, intracellular calcium concentration [Ca^++]i was measured by flow cytometry. Measurement of isolated mouse and rabbit ventricular myocyte [Ca^2+]i and [Na^+]i by flow cytometry has been described (Zhang et al., J. Cardiovasc. Pharmacol. 51: 443-449 (2008); Li et al., J. Mol. Cell. Cardiol. 33: 2145-2155 (2001)). [Ca^++]i was measured with the Ca^++ sensitive fluorescent probe, Fluo 3-AM (Molecular Probes, Eugene, Oreg.), using a FACScan (Becton-Dickinson, MA). The cells were exposed to 4 μmol/L Fluo-3 AM for 30 min at 37° C. The cells were then separated into aliquots. After 40 min of wash, the cells were exposed to paced metabolic ischemia (MI) for 45 min at 37° C. Metabolic ischemia was accomplished by incubating cells in a glucose-free MKRBB solution (pH 7.40) containing 2 mmol/L sodium cyanide (NaCN) to impair mitochondrial and glycolytic generation of ATP. To reproduce the situation in the beating ischemic heart, during the period of metabolic ischemia, myocytes were placed in a 5-well chamber with equal volumes of myocyte suspensions from the same heart dissociation placed in each well. The chamber was water bathed to maintain temperature at 37° C. and bubbled with 5% CO2 in air to keep myocytes in suspension. […] Approximately 2×10^3 myocytes were analyzed to calculate average emission fluorescence intensity in each sample. […] Only those cells with low fluorescence intensity at 670 nm (PI-negative cells or viable cells) were included in the comparative analysis of [Ca^++]i. The sample [Ca^2+]i values were calculated by Mn^2+ quenching (Sugishita et al, 2001) and [Na^+]i values by comparison with a standard curve of varied [Na^+]i versus Na Green fluorescence. […] Results were expressed as means±SEM. […]
To further examine the role of ODSH as a Na^+ inhibitor, additional experiments were performed in which the Na^+ channel opener amenone toxin II (ATX) was added to medium in a final concentration of 20 nmol/L to open the cardiac myocyte membrane Na^+ channel. […] Intracellular calcium concentration [Ca^++]i was monitored as earlier. […]

[3] = system: rabbit ventricular myocytes; assay: [Na^+]i in paced myocytes exposed to ATX, no metabolic inhibition; format: cell-based; details: ATX 10 nM, HEPES + pacing; FIG. 9; n = 6
Protocol: as §1, with “After 40 min of wash, the cells were exposed to paced metabolic ischemia (MI) for 45 min at 37° C.” left out, “suspension. Each well was fitted with platinum sheet electrodes on both sides for field stimulation. One chamber was constructed with a glass coverslip bottom so that myocytes can be observed microscopically to assess capture threshold. Placing electrodes were connected in series to a constant current pulse generator that delivers a 0.2 ampere pulse at 0.5 Hz.” for “suspension.”

CS(=O)(=O)O.N=C(N)SCCc1ccc(OCc2ccc([N+](=O)[O-])cc2)cc1 [KBR, 2-[2-[4-(4-nitrobenzyloxy)phenyl]ethyl]isothiourea metanesulfonate, reference compound]
[Ca^++]i ([1]; Table 6: PMI + KBR 10 μmol/L, PMI alone 985.5 ± 42.7): 666.5 ± 50.7 nM | selectivity for reserve mode versus forward mode (NCE; Iwamoto 1996): 50 fold

CCOc1ccc(Oc2ccc(OCc3cc(F)ccc3F)cc2)c(N)c1 [SEA0400, 2-[4-[(2,5-difluorophenyl)methoxy]-phenoxy]-5-ethoxyaniline]
selectivity for the reverse versus forward mode of the NCE (NCE; Matsuda 2001): lacks selectivity for the reverse versus forward mode of the NCE

COc1ccccc1OCC(O)CN1CCN(CC(=O)Nc2c(C)cccc2C)CC1 (stereo not drawn) [ranolazine, reference compound]
effect on [Ca^2+]i during P-MI ([1]; each alone: ODSH 100 μg/ml, ranolazine 10 μM, FIG. 8): reduced [Ca^2+]i to a similar degree

ATX: Na^+ channel opener; selective activator of INa,L [reference compound]
[Ca^++]i [2]: 529.1 ± 29.3 nM | effect on [Na^+]i in paced myocytes [3]: substantial increase in [Na^+]i
